For data set [1], the system named is K. pneumoniae ATCC 700603 ESBL-positive. Briefly: combination disc test CDT-ESBL. It counts as cell-based. The settings on record: Klebsiella pneumoniae, ATCC700603, read-out: Diameter of inhibition zone, CAZ-30 disc with agent; for zone of inhibition at 100 µg/disc: agent 0.1 mg per disc.
The nature of data set [2]: MTT-based viability assay. It counts as cell-based. The settings on record: human, MRC-5 human fibroblasts, 72 h. In short, it runs like this: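 MRC-5 human fibroblasts grown in MEME with 10% FBS at 37 °C, 5% CO2, tested by MTT with absorbance read at 570 nm. Viability given as percent of untreated control cells, in triplicate.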
In general terms: Formazan colour is commonly taken as a measure of viable cells.

Data set [3] deals with K. pneumoniae 83 KPC-3-positive, CTX-M-3-positive. Briefly: checkerboard microdilution, antibiotic plus tested agent. In kind it is cell-based, Klebsiella pneumoniae. The essentials: (§1)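 Read-out is the antibiotic MIC with agent present, plus FICI = combined/alone MIC ratios summed for both partners. Meropenem pairs served for carbapenemase strains and ceftazidime pairs for the AmpC strain. Agent or PBA was tested at 4–16 mg/L.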

Data set [4] deals with K. pneumoniae ATCC BAA-1705 KPC-2-positive. Described as above. It counts as cell-based, Klebsiella pneumoniae. The essentials:
as §1

Data set [5] concerns K. pneumoniae 81 KPC-3-positive. The data set is described as above. In kind it is cell-based, Klebsiella pneumoniae. In short, it runs like this:
as §1

Data set [6] has as its system Gram-negative rods (except P. aeruginosa). Briefly: direct antimicrobial activity, MIC. In kind it is cell-based. As for the experimental part:
Direct antimicrobial activity against Gram-negative and Gram-positive bacterial strains, as well as against yeast, was examined as previously described by the disc-diffusion test, the MIC determination assay, the MBC (for bacteria), and the MFC (for yeasts) determination tests. All the above-mentioned tests were performed according to EUCAST [71, 72] and CLSI [73, 74, 75, 76, 77] recommendations. The following reference agents were used: nitrofurantoin (for Gram-negative rods), linezolid (for Gram-positive bacteria), and fluconazole (in the case of fungi). The new aromatic diboronic acids were dissolved in DMSO (Sigma, St. Louis, MO, USA). In the disc-diffusion test, the concentration of new agents was 0.4 mg per disc.

Data set [7] relates to E. coli 76 KPC-2-positive. Put plainly: checkerboard microdilution, antibiotic plus tested agent. In kind it is cell-based, Escherichia coli. In short, it runs like this:
as §1

For data set [8], the system named is E. coli 77 CMY-2-positive. The data set is described as above. It counts as cell-based, Escherichia coli. The essentials: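 β-lactam 1–64 mg/L × agent/PBA 4–16 mg/L checkerboard; meropenem vs carbapenemase producers, ceftazidime vs AmpC producer; imipenem, ertapenem added for selected agents. Readout: combination MICs, FICI (average and lowest); off-scale MICs taken as next doubling.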

In the next data set the test system is C. krusei ATCC 6258. Put plainly: antifungal activity (disc-diffusion, MIC, MFC). In kind it is cell-based, Candida krusei. The settings on record: Pichia kudriavzevii, ATCC6258; for MIC: fluconazole by Etest; for zone of inhibition at 0.4 mg/disc: 0.4 mg per disc, 9 mm disc (fluconazole 0.025 mg, 6 mm disc), - no zone, read-out: Diameter of inhibition zone. The essentials: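 EUCAST/CLSI methods: disc diffusion at 0.4 mg compound/disc, broth MIC, then MBC (bacteria) or MFC (yeast). DMSO vehicle.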
A general note: Agar diffusion results depend on both activity and mobility in agar.

The subject of data set [9] is K. pneumoniae ATCC 700603 ESBL(+). Briefly: screening test of direct antimicrobial activity (STDA), disc-diffusion. It counts as cell-based. The settings on record: Klebsiella pneumoniae, ATCC700603; 0.3 mg per disc; - no zone; read-out: Diameter of inhibition zone around disc with tested agent. As for the experimental part: (§2) Prior to combination disc tests, screening tests of direct antimicrobial activity (STDA) of the tested agent against β-lactamase-producing strains were performed by the disc-diffusion method. Discs with 0.3 mg, 0.1 mg, and 0.03 mg of each agent were examined. The highest amount of an agent that caused no effect on bacterial growth was used in further experiments.

The subject of data set [10] is K. pneumoniae ATCC BAA 1705 KPC(+). The data set is described as above. In kind it is cell-based. The settings on record: Klebsiella pneumoniae, BAA1705; 0.3 mg per disc; - no zone; read-out: Diameter of inhibition zone around disc with tested agent. As for the experimental part:
as §2

In data set [11] the test system is P. aeruginosa MUW 700 AmpC(+). The description is as above. The settings on record: Pseudomonas aeruginosa; 0.3 mg per disc; - no zone; read-out: Diameter of inhibition zone around disc with tested agent. It counts as cell-based. As for the experimental part: as §2
The test system of another data set is E. coli 77 CMY-2(+). The data set is described as above. In kind it is cell-based. The settings on record: Escherichia coli, - no zone, read-out: Diameter of inhibition zone around disc with tested agent; for zone of inhibition at 300 µg/disc: 0.3 mg per disc. As for the experimental part: as §2
Where [12] appears, read: read-out: Viability of MRC-5 cells (% of viable cells ± SD).

≈ marks a conversion by molar mass, not a printed value.

Regarding `OB(O)c1ccccc1B(O)O` [3a, phenylene-1,2-diboronic acid], the zone of inhibition at 300 µg/disc in [1] (agent 0.3 mg per disc) came out at 18 mm. The viability at 72 h, 16 mg/L in data set [2] (16 mg/L, read-out: Viability of MRC-5 cells (% of viable cells ± SD)) was determined as 110 ± 9.3%. Besides, the viability at 72 h, 32 mg/L in [2] (32 mg/L, read-out: Viability of MRC-5 cells (% of viable cells ± SD)) came out at 106 ± 10.6%. The viability at 72 h, 64 mg/L in data set [2] (64 mg/L, read-out: Viability of MRC-5 cells (% of viable cells ± SD)) came out at 76.2 ± 4.2%. Also, in [3], the “Average FICI with ERT” value amounted to 0.17, the “Average FICI with IMI” value came out at 0.17, the “Average FICI with MEM” value amounted to 0.13 and the “The lowest FICI with ERT” value turned out to be 0.10. Also, in data set [3], the “The lowest FICI with IMI” value came to 0.10 and the “The lowest FICI with MEM” value worked out at 0.06. Besides, in [4], the “Average FICI with ERT” value came to 0.32, the “Average FICI with IMI” value is 0.19, the “Average FICI with MEM” value was determined as 0.32 and the “The lowest FICI with ERT” value came out at 0.17. Further, in [4], the “The lowest FICI with IMI” value was 0.15 and the “The lowest FICI with MEM” value amounted to 0.17. Moreover, in data set [5], the “Average FICI with ERT” value turned out to be 0.14, the “Average FICI with IMI” value was 0.13, the “Average FICI with MEM” value is 0.10 and the “The lowest FICI with ERT” value turned out to be 0.07. Further, in data set [5], the “The lowest FICI with IMI” value is recorded as 0.10 and the “The lowest FICI with MEM” value was 0.07. Moreover, the MIC in [6] lay within 50 to 400 µg/mL (≈ 302 to 2410 µM). Also, in data set [7], the “Average FICI with ERT” value is 0.23, the “Average FICI with IMI” value turned out to be 0.13, the “Average FICI with MEM” value stood at 0.17 and the “The lowest FICI with ERT” value worked out at 0.17. Also, in [7], the “The lowest FICI with IMI” value was found to be 0.10 and the “The lowest FICI with MEM” value stood at 0.10. In addition, in [8], the “Average FICI with ceftazidime” value was found to be 0.44 and the “The lowest FICI with ceftazidime” value was 0.29. The molecule also registered an MIC in the data set with C. krusei ATCC 6258 of 400 µg/mL (≈ 2410 µM).

With `OB(O)c1cc(Br)c(B(O)O)cc1Br` [1i], in data set [1], the zone of inhibition at 100 µg/disc is 14 mm. The zone of inhibition at 300 µg/disc in data set [9] was determined as 13 mm; in data set [10], 15 mm; in data set [11], 12 mm; in the data set with E. coli 77 CMY-2(+) it was 16 mm. In addition, in [2] (setting [12]), the viability at 72 h, 12.5 mg/L worked out at 122%. Further, the viability at 72 h, 25 mg/L in [2] (setting [12]) was found to be 114 ± 4.8%. Also, in data set [2] (setting [12]), the viability at 72 h, 50 mg/L worked out at 101.4 ± 0.9%. In addition, the MIC in data set [6] was 50 to 400 µg/mL (≈ 155 to 1240 µM); with C. krusei ATCC 6258, 50 µg/mL (≈ 155 µM). Besides, in the data set with C. krusei ATCC 6258, the zone of inhibition at 0.4 mg/disc was 22 mm.

Regarding `OB(O)c1cc(F)c(B(O)O)c(F)c1` [1d], in [1], the zone of inhibition at 100 µg/disc was found to be 14 mm. For the same molecule, the zone of inhibition at 300 µg/disc in data set [9] turned out to be 14 mm. Further, the zone of inhibition at 300 µg/disc in data set [10] turned out to be 15 mm. Further, the zone of inhibition at 300 µg/disc in data set [11] came to 12 mm. The zone of inhibition at 300 µg/disc with E. coli 77 CMY-2(+) is 13 mm. Also, in data set [2] (setting [12]), the viability at 72 h, 12.5 mg/L was 111.6 ± 1.1%; the viability at 72 h, 25 mg/L stood at 104 ± 8.9%; the viability at 72 h, 50 mg/L was determined as 83.3 ± 1.2%. Moreover, in data set [3], the “Average FICI with ERT” value was found to be 0.69, the “Average FICI with IMI” value came to 0.52, the “Average FICI with MEM” value was found to be 0.61 and the “The lowest FICI with ERT” value came out at 0.52. Besides, in data set [3], the “The lowest FICI with IMI” value was determined as 0.51 and the “The lowest FICI with MEM” value is on record as 0.29. In addition, in data set [4], the “Average FICI with ERT” value came out at 0.86, the “Average FICI with IMI” value stood at 0.69, the “Average FICI with MEM” value is 0.44 and the “The lowest FICI with ERT” value is listed as 0.54. Moreover, in data set [4], the “The lowest FICI with IMI” value worked out at 0.52 and the “The lowest FICI with MEM” value is recorded as 0.29. Besides, in [5], the “Average FICI with ERT” value stood at 0.40, the “Average FICI with IMI” value stood at 0.36, the “Average FICI with MEM” value worked out at 0.29 and the “The lowest FICI with ERT” value is 0.17. In data set [5], the “The lowest FICI with IMI” value was determined as 0.27 and the “The lowest FICI with MEM” value came to 0.10. In data set [7], the “Average FICI with ERT” value was determined as 0.36, the “Average FICI with IMI” value is 0.44, the “Average FICI with MEM” value is 0.44 and the “The lowest FICI with ERT” value is 0.27. Also, in [7], the “The lowest FICI with IMI” value is reported as 0.29 and the “The lowest FICI with MEM” value is listed as 0.29. Moreover, in data set [8], the “Average FICI with ceftazidime” value was found to be 0.23 and the “The lowest FICI with ceftazidime” value was found to be 0.17. This molecule also came in with a minimal inhibitory concentration (MIC) against C. krusei ATCC 6258 of 200 µg/mL (≈ 991 µM).

`O=Cc1cc(F)ccc1B(O)O` [7b]: the zone of inhibition at 300 µg/disc in data set [9] is 13 mm. For the same molecule, in data set [10], the zone of inhibition at 300 µg/disc is 14 mm. The zone of inhibition at 100 µg/disc in the data set on E. coli 77 CMY-2(+) (0.1 mg per disc) was found to be 12 mm. The zone of inhibition at 300 µg/disc with E. coli 77 CMY-2(+) was 14 mm. In addition, in [2] (setting [12]), the viability at 72 h, 12.5 mg/L turned out to be 48.9 ± 3.8%; the viability at 72 h, 25 mg/L stood at 6.4 ± 1.4%; the viability at 72 h, 50 mg/L amounted to 0.9 ± 0.7%. Also, the viability at 72 h in [2] (12.5, 25 and 50 mg/L) lay within 0 to 56.4%. The MIC in data set [6] lay within 50 to 400 µg/mL (≈ 298 to 2380 µM). For the same molecule, in the data set with C. krusei ATCC 6258, the zone of inhibition at 0.4 mg/disc was 28 mm and the minimum inhibitory concentration (MIC) worked out at 25 µg/mL (≈ 149 µM).

As usually defined, the zone of inhibition is the size of the clear area around the sample on an inoculated plate. The term viability denotes a read-out of living cells in per cent, often relative to untreated cells. Broadly, the MIC is the lowest concentration that inhibits growth of the organism. A low value points to a more susceptible organism.
